Target: T1, CK1α (Homo sapiens, UniProt P48729+Q96SW2)
T1 construct: expressed in transfected cells
Assay: CK1α ePL degradation assay in MDS-L cells
Format: cell-based
Conditions: MDS-L cells expressing ePL-tagged CK1α; for DC50: concentration giving 50% CK1α degradation vs DMSO control; for Y: lowest measured CK1α level normalized to DMSO control
Outline: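 MDS-L cells treated with compound in a 10-point, 3-fold series from 10 μM to 0.0005 μM at 37° C, 5% CO2 for the indicated times; CK1α measured by InCELL Hunter enzyme-fragment luminescence. Levels normalized to DMSO as percent of control; lowest level reached taken as Y value.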

T1 sequence (P48729 whole entry): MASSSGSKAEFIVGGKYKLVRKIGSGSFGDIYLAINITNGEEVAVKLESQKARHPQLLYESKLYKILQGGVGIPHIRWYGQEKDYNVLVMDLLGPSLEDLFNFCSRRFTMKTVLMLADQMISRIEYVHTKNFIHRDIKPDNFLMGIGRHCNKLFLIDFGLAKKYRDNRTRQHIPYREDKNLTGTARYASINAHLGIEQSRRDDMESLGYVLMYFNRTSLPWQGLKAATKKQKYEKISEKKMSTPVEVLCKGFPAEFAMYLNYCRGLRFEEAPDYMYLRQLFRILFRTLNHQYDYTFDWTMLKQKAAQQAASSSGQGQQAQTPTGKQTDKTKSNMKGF
T1 sequence (Q96SW2 whole entry): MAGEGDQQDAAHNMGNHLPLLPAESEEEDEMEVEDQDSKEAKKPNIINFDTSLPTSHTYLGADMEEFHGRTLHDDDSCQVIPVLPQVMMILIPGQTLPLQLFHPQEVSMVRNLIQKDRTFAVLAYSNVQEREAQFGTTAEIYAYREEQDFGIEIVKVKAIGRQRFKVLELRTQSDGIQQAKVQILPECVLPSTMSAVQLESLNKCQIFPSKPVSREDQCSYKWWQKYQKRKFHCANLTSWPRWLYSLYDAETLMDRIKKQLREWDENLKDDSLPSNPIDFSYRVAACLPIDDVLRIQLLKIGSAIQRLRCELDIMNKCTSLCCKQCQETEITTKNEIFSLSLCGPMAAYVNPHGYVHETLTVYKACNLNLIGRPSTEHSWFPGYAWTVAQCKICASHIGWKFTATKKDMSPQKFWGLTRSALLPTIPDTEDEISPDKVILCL
T1 sequence (Q16531 whole entry partner): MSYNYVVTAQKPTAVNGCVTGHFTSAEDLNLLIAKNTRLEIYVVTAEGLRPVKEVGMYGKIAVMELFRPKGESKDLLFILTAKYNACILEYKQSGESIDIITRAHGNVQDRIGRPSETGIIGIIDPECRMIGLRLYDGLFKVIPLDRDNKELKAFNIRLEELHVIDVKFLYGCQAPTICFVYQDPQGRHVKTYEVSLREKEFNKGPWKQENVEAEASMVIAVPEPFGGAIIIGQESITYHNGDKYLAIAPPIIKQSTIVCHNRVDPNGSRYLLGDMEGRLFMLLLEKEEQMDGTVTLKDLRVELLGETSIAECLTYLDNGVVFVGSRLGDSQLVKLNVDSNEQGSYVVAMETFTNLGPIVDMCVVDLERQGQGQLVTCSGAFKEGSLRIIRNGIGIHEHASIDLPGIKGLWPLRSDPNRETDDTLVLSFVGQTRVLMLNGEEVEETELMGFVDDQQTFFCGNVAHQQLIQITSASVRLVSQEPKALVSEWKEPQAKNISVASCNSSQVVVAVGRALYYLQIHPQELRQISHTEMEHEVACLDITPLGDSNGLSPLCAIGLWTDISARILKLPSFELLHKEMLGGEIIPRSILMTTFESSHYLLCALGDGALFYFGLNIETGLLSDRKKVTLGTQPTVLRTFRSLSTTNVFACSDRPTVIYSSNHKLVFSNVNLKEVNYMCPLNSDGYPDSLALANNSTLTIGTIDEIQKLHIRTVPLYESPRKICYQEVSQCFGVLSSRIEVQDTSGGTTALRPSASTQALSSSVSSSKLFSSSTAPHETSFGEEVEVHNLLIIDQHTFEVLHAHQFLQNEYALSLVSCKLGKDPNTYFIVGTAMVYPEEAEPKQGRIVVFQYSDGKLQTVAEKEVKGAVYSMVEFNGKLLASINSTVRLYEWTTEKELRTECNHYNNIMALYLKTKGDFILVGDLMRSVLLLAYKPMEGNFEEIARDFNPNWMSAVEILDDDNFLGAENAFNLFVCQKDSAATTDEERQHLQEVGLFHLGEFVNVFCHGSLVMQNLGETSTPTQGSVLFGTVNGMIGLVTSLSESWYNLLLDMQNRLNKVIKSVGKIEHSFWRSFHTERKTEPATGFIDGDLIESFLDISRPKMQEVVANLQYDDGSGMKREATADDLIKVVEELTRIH

DC50 [nM] | Y | Structure (SMILES)
< 100 | * (a Y value (shown as *) of 0<Y≤20%) | Cc1ccccc1[C@@H](CC(F)(F)F)NC(=O)c1ccc2c(c1)CN(C1CCC(=O)NC1=O)C2=O (stereo partly drawn) [Example 196, 2-(2,6-dioxopiperidin-3-yl)-1-oxo-N-((R)-3,3,3-trifluoro-1-o-tolylpropyl)isoindoline-5-carboxamide]
< 100 | * (a Y value (shown as *) of 0<Y≤20%) | CN(C)Cc1ccc([C@@H](NC(=O)c2ccc3c(c2)CN(C2CCC(=O)NC2=O)C3=O)C(F)(F)F)c(Cl)c1 (stereo partly drawn) [Example 198, N-((R)-1-(2-chloro-4-((dimethylamino)methyl)phenyl)-2,2,2-trifluoroethyl)-2-(2,6-dioxopiperidin-3-yl)-1-oxoisoindoline-5-carboxamide]
< 100 | * (a Y value (shown as *) of 0<Y≤20%) | Cc1cccnc1[C@@H](NC(=O)c1ccc2c(c1)CN(C1CCC(=O)NC1=O)C2=O)C(F)(F)F (stereo partly drawn) [Example 199, 2-(2,6-dioxopiperidin-3-yl)-1-oxo-N-((R)-2,2,2-trifluoro-1-(3-methylpyridin-2-yl)ethyl)isoindoline-5-carboxamide]
< 100 | * (a Y value (shown as *) of 0<Y≤20%) | COc1cccnc1[C@@H](NC(=O)c1ccc2c(c1)CN(C1CCC(=O)NC1=O)C2=O)C(F)(F)F (stereo partly drawn) [Example 200, 2-(2,6-dioxopiperidin-3-yl)-1-oxo-N-((R)-2,2,2-trifluoro-1-(3-methoxypyridin-2-yl)ethyl)isoindoline-5-carboxamide]
< 100 | * (a Y value (shown as *) of 0<Y≤20%) | O=C1CCC(N2Cc3cc(C(=O)N[C@H](c4cccc(N5CCOCC5)c4)C(F)(F)F)ccc3C2=O)C(=O)N1 (stereo partly drawn) [Example 201, 2-(2,6-dioxopiperidin-3-yl)-1-oxo-N-((R)-2,2,2-trifluoro-1-(3-morpholinophenyl)ethyl)isoindoline-5-carboxamide]
< 100 | * (a Y value (shown as *) of 0<Y≤20%) | CN(C)Cc1cnc([C@@H](NC(=O)c2ccc3c(c2)CN(C2CCC(=O)NC2=O)C3=O)C(F)(F)F)c(Cl)c1 (stereo partly drawn) [Example 202, N-((R)-1-(3-chloro-5-((dimethylamino)methyl)pyridin-2-yl)-2,2,2-trifluoroethyl)-2-(2,6-dioxopiperidin-3-yl)-1-oxoisoindoline-5-carboxamide]
< 100 | * (a Y value (shown as *) of 0<Y≤20%) | O=C1CCC(N2Cc3cc(C(=O)N[C@H](c4c(F)cc(F)cc4Cl)C(F)(F)F)ccc3C2=O)C(=O)N1 (stereo partly drawn) [Example 203, N-((R)-1-(2-chloro-4,6-difluorophenyl)-2,2,2-trifluoroethyl)-2-(2,6-dioxopiperidin-3-yl)-1-oxoisoindoline-5-carboxamide]
< 100 | * (a Y value (shown as *) of 0<Y≤20%) | O=C1CCC(N2Cc3cc(C(=O)N[C@H](c4ccc(N5CCOCC5)cc4)C(F)(F)F)ccc3C2=O)C(=O)N1 (stereo partly drawn) [Example 204, 2-(2,6-dioxopiperidin-3-yl)-1-oxo-N-((R)-2,2,2-trifluoro-1-(4-morpholinophenyl)ethyl)isoindoline-5-carboxamide]
< 100 | * (a Y value (shown as *) of 0<Y≤20%) | O=C1CCC(N2Cc3cc(C(=O)N[C@H](c4ccccc4N4CCOCC4)C(F)(F)F)ccc3C2=O)C(=O)N1 (stereo partly drawn) [Example 205, 2-(2,6-dioxopiperidin-3-yl)-1-oxo-N-((R)-2,2,2-trifluoro-1-(2-morpholinophenyl)ethyl)isoindoline-5-carboxamide]
< 100 | * (a Y value (shown as *) of 0<Y≤20%) | CN1CCN(c2ccccc2[C@@H](NC(=O)c2ccc3c(c2)CN(C2CCC(=O)NC2=O)C3=O)C(F)(F)F)CC1 (stereo partly drawn) [Example 206, 2-(2,6-dioxopiperidin-3-yl)-1-oxo-N-((R)-2,2,2-trifluoro-1-(2-(4-methylpiperazin-1-yl)phenyl)ethyl)isoindoline-5-carboxamide]
< 100 | * (a Y value (shown as *) of 0<Y≤20%) | O=C1CC[C@H](N2Cc3cc(C(=O)N[C@H](c4ncc(Cl)cc4Cl)C(F)(F)F)ccc3C2=O)C(=O)N1 [Example 207, N-((R)-1-(3,5-dichloropyridin-2-yl)-2,2,2-trifluoroethyl)-2-((S)-2,6-dioxopiperidin-3-yl)-1-oxoisoindoline-5-carboxamide]
< 100 | * (a Y value (shown as *) of 0<Y≤20%) | CN1CCN(c2ccc([C@@H](NC(=O)c3ccc4c(c3)CN(C3CCC(=O)NC3=O)C4=O)C(F)(F)F)cc2)CC1 (stereo partly drawn) [Example 208, 2-(2,6-dioxopiperidin-3-yl)-1-oxo-N-((R)-2,2,2-trifluoro-1-(4-(4-methylpiperazin-1-yl)phenyl)ethyl)isoindoline-5-carboxamide]
100 to 500 | ** (a Y value (shown as**) of 20%<Y≤35%) | CN1CCN(c2cccc([C@@H](NC(=O)c3ccc4c(c3)CN(C3CCC(=O)NC3=O)C4=O)C(F)(F)F)c2)CC1 (stereo partly drawn) [Example 209, 2-(2,6-dioxopiperidin-3-yl)-1-oxo-N-((R)-2,2,2-trifluoro-1-(3-(4-methylpiperazin-1-yl)phenyl)ethyl)isoindoline-5-carboxamide]

Structure (SMILES) | DC50 [nM] | Y
O=C1CCC(N2Cc3cc(C(=O)N[C@@H](c4ccccc4F)C(F)(F)F)ccc3C2=O)C(=O)N1 (stereo partly drawn) [Example 197, 2-(2,6-dioxopiperidin-3-yl)-1-oxo-N-((S)-2,2,2-trifluoro-1-(2-fluorophenyl)ethyl)isoindoline-5-carboxamide] | 500 to 1000 | *** (a Y value (shown as***) of 35%<Y<50%)

Source: patent publication US11306101B2 (Celgene Corporation, priority 2019, dated 2022)
